Earlier results on 5 molecules are cited in patent publication US20230150906A1, “DESOXYSCALINE DERIVATIVES WITH MODIFIED MESCALINE-LIKE ACTION” (Mind Medicine, Inc., priority 2021, published 2023).

“Also recorded” adds a separate entry of the source.

The target in one data set is 5-HT transporter (SERT) (Homo sapiens, UniProt P31645).
In a further data set the target is 5-HT2A receptor (Homo sapiens, UniProt P28223).
For data set [1] the following is noted: humans.
The target in data set [2] is serotonin 5-HT2A receptor (Homo sapiens, UniProt P28223).
The next data set has as its target D2 receptors (Homo sapiens, UniProt P14416).

5-HT2A receptor, sequence (P28223 whole entry): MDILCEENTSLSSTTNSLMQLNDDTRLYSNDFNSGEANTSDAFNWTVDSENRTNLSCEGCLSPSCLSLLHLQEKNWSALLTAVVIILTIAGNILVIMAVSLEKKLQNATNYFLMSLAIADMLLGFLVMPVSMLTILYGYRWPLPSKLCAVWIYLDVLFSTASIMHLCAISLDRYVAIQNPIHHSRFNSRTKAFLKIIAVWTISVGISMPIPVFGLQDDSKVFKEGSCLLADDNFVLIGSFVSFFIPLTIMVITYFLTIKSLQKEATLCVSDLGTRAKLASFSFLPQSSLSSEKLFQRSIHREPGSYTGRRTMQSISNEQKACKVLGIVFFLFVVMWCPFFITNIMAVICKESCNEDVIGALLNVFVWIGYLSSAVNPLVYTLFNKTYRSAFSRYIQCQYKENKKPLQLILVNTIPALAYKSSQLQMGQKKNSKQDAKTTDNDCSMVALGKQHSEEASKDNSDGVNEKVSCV
D2 receptors, sequence (P14416 whole entry): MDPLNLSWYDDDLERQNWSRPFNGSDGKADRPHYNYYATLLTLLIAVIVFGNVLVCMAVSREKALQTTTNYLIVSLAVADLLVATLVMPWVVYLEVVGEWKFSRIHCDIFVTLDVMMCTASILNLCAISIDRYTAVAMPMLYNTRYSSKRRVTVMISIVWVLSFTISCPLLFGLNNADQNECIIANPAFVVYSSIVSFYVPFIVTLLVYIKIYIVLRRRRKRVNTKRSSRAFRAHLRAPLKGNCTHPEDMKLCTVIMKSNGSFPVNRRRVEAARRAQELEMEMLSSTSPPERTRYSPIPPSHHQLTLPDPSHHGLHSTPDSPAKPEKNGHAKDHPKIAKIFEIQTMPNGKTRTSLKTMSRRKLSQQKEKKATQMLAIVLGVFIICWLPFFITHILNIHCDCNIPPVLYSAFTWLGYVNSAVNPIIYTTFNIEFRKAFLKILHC
5-HT transporter (SERT), sequence (P31645 whole entry, species assumed): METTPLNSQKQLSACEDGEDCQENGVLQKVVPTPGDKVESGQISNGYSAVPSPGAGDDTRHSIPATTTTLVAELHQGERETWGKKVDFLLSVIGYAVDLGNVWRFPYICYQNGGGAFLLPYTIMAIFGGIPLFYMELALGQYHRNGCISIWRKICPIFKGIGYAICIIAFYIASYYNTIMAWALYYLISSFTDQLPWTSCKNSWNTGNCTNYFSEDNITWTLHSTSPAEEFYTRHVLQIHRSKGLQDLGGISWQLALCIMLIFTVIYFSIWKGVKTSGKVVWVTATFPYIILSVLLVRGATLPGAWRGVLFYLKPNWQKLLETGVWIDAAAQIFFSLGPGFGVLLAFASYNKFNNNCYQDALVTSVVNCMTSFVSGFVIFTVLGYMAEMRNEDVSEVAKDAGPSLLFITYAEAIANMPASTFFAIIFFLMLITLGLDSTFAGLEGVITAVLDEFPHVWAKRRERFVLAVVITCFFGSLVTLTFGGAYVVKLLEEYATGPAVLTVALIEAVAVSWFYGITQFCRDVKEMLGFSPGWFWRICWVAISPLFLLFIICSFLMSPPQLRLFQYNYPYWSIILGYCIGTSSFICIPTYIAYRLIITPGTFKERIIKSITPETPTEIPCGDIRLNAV
serotonin 5-HT2A receptor, sequence (P28223 whole entry): as the sequence (P28223 whole entry) above

Regarding `COc1cc(CCN)cc(OC)c1C` [DESOXY, 3,5-dimethoxy-4-methylphenethylamine], the “psychoactive effects in human” value in the data set on humans (human) is recorded as “has shown psychoactive effects in human”.

Regarding `CN(C)CCc1c[nH]c2cccc(O)c12` [Psilocin, psilocin], the “interaction with the SERT” value on 5-HT transporter (SERT) is “inhibits”. On 5-HT2A receptor, the “activity at the 5-HT2A receptor (agonism / stimulation)” value (“activity … (agonism / stimulation)” for short) is “stimulates”.

On to `COc1cc(CCN)cc(OC)c1OC` [mescaline], for which the plasma half-life entry in data set [1] was “approximately 6 hours”. For the same molecule, the “5-HT2A receptor ligand strength” value in data set [2] is reported as “very weak”. Further, the “affinity for D2 receptors” value on D2 receptors is reported as “no affinity”. Also, the “interaction with the SERT” value on 5-HT transporter (SERT) is given as “do not interact”. Also, on 5-HT2A receptor, the “activity … (agonism / stimulation)” value was “agonists”. Moreover, the “dose needed to induce a full psychedelic experience” value in the data set with humans (humans) was 200 to 800 mg. In the data set with humans (humans, psychoactive doses), the “time of peak of subjective effects” value is 4 h and the “time until subjective effects appear” value is no more than 30 min. For the same molecule, the “duration of subjective effects” value in the data set on humans (humans, psychoactive doses, dose-dependent) is 10 to 16 h.

Regarding `CN(C)CCc1c[nH]c2ccccc12` [DMT, N,N-dimethyltryptamine], the “activity … (agonism / stimulation)” value on 5-HT2A receptor is reported as “agonists”.

In the case of `CCN(CC)C(=O)[C@@H]1C=C2c3cccc4[nH]cc(c34)C[C@H]2N(C)C1` [LSD, lysergic acid diethylamide], the “activity at D2 receptors” value at D2 receptors is “has activity”. Besides, the “activity … (agonism / stimulation)” value on 5-HT2A receptor is “agonists; also recorded: potently stimulates”.
